Experimental data published in ChEMBL document CHEMBL1145107, “Peptide science: exploring the use of chemical principles and interdisciplinary collaboration for understanding life processes” (J Med Chem, 2003).
*1 amine or outer side, *2 acyl side, *3 side chain or, on linkers, in order; H or OH if unused. Where a SMILES comes first, the peptide text is derived from it. [ ]: non-standard residue; d: D form. X1 = Cc1cc(O)cc(C)c1[C@H](C)[C@@H](N[*:1])C(=O)[*:2]; NMeNle = CCCC[C@H](NC)C(=O)O; Pen = CC(C)(S)[C@H](N)C(=O)O; dNle = CCCC[C@@H](N)C(=O)O

Columns and labels:
Oxytocin receptor = molecular target: T1, Oxytocin receptor (Homo sapiens, UniProt P30559); test: Binding affinity towards oxytocin receptor
T1 sequence (P30559 whole entry): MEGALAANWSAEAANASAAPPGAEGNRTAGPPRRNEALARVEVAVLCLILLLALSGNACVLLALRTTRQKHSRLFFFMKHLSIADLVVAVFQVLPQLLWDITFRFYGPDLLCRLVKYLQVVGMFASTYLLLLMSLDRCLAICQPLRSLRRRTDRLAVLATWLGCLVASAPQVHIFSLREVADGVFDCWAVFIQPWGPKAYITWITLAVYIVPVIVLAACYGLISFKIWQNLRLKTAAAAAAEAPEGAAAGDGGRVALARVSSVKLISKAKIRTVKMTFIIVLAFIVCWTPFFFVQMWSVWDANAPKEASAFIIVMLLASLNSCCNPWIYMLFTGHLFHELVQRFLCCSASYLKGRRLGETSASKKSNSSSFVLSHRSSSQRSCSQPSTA

[1] = molecular target: T2, Cholecystokinin receptor type A (Homo sapiens, UniProt P32238); test: Binding affinity towards Cholecystokinin type A receptor (CCK-A) receptor was determined
T2 sequence (P32238 whole entry): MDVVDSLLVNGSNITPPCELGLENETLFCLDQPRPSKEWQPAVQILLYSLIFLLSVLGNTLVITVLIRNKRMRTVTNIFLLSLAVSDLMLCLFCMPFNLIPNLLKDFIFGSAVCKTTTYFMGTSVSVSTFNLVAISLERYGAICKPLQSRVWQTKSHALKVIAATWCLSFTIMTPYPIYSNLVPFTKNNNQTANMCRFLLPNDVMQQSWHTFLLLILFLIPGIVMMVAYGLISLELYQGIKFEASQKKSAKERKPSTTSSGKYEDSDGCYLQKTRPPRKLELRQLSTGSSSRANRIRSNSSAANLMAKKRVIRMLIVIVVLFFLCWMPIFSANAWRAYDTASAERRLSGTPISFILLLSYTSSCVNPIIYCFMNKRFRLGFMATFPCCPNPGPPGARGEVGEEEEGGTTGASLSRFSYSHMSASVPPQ

Mu-type opioid receptor [2] = molecular target: T3, Mu-type opioid receptor (Homo sapiens, UniProt P35372); test: Binding affinity towards Opioid receptor mu 1 was determined
Anolis carolinensis [3] = test: Biological activity using the lizard skin (Anolis carolinensis) assay. The value indicates prolonged biological activity; format: functional, organism-based
[4] = Biological activity using the frog skin (Rana pipiens) assay. The value indicates prolonged biological activity; format: functional
[5] = Biological activity using the frog skin (Rana pipiens) assay. The value indicates no prolonged biological activity; format: functional
Mu-type opioid receptor [6] = molecular target: T3, Mu-type opioid receptor; test: (§1) Binding affinity towards Opioid receptor mu 1 using [3H]- CTOP as radioligand
[7] = molecular target: Mu-type opioid receptor (Cavia porcellus) (UniProt P97266); test: In vitro bioassay data to determine the effective concentration required for antagonistic activity against Opioid receptor mu 1 in functional assay, GPI at a concentration of 82 uM; set-up: scale not given: the % may be the effect or the level left
Mu-type opioid receptor [8] = molecular target: T3, Mu-type opioid receptor; test: as §1; remark: listed apart in the source
Anolis carolinensis [9] = test: Biological activity using the lizard skin (Anolis carolinensis) assay. The value indicates no prolonged biological activity; format: functional, organism-based
[10] = molecular target: T4, Gastrin/cholecystokinin type B receptor (Homo sapiens, UniProt P32239); test: Binding affinity towards Cholecystokinin type B receptor (CCK-B) receptor was determined
T4 sequence (P32239 whole entry): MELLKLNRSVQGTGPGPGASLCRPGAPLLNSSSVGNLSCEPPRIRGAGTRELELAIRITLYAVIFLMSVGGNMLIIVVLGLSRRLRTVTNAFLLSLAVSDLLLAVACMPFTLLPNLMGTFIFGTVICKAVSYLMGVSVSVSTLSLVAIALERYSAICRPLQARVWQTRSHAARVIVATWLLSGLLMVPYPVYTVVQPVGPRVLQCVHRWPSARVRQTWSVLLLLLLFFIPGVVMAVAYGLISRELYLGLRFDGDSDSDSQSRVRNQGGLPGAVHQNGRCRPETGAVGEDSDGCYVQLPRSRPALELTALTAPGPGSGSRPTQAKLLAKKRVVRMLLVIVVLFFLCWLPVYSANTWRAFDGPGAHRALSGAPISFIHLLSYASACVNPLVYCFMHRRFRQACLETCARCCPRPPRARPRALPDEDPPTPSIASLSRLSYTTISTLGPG

[11] = molecular target: Delta-type opioid receptor (Homo sapiens, UniProt P41143); test: Binding affinity towards Opioid receptor delta 1 was determined
[12] = molecular target: Delta-type opioid receptor (Rattus norvegicus, UniProt P33533); test: Binding affinity towards Opioid receptor delta 1 using [3H]- [p-CIPhe4] DPDPE as radioligand
Sequence of Delta-type opioid receptor (Rattus norvegicus, UniProt P33533) (P33533 whole entry): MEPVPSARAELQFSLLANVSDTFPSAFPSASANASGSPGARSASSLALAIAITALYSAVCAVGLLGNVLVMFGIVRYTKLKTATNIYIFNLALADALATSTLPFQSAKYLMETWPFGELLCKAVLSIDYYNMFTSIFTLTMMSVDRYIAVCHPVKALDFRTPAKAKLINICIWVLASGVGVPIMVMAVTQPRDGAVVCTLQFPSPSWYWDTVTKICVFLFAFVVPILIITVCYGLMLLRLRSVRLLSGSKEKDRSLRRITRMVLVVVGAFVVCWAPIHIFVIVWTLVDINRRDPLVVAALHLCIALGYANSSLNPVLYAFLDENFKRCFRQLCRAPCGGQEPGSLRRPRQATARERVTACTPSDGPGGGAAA

Sequence of Delta-type opioid receptor (Homo sapiens, UniProt P41143) (P41143 whole entry): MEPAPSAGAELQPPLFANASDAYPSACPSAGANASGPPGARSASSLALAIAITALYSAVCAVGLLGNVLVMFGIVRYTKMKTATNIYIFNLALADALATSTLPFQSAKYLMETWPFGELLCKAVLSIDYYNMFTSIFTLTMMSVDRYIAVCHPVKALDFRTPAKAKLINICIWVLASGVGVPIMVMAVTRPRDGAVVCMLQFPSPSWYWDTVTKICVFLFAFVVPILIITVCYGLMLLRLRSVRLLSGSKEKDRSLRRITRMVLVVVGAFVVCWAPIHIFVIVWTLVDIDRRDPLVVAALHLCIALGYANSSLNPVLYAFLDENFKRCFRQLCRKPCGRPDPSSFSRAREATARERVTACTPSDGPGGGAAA
T3 sequence (P35372 whole entry): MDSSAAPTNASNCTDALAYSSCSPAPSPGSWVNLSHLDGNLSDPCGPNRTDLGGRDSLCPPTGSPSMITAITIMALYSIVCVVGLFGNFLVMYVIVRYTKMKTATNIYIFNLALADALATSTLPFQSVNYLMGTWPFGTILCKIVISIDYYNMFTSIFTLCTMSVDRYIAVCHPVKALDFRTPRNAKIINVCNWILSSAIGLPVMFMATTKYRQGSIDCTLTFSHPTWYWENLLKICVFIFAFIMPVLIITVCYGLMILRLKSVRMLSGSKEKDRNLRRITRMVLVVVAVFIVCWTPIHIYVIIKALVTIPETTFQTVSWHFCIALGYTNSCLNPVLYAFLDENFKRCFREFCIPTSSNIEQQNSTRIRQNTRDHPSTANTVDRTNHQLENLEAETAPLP
Sequence of Mu-type opioid receptor (Cavia porcellus) (P97266 whole entry): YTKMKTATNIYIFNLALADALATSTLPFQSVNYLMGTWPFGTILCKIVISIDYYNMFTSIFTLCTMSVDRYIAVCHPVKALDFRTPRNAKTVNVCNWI

CC[C@H](C)[C@@H]1NC(=O)[C@@H]([C@@H](C)c2c(C)cc(OC)cc2C)NC(=O)[C@H](N)C(C)(C)SSC[C@@H]2NC(=O)[C@@H](CC(N)=O)NC(=O)[C@@H](CCC(=O)NCCCC[C@H](C(=O)NCC(N)=O)NC(=O)[C@H]3CCCN3C2=O)NC1=O
IC50 (Oxytocin receptor): 36000 nM

CC[C@H](C)[C@@H]1NC(=O)[C@@H]([C@H](C)c2c(C)cc(OC)cc2C)NC(=O)[C@H](N)C(C)(C)SSC[C@@H]2NC(=O)[C@H](CC(N)=O)NC(=O)[C@H](CCC(=O)NCCCC[C@@H](C(=O)NCC(N)=O)NC(=O)[C@@H]3CCCN3C2=O)NC1=O
IC50 (Oxytocin receptor): 160 nM

CCCC[C@@H](C(=O)N[C@@H](CC(=O)O)C(=O)N[C@@H](Cc1ccccc1)C(N)=O)N(C)C(=O)[C@H](Cc1c[nH]c2ccccc12)NC(=O)CNC(=O)[C@@H](Cc1ccccc1)NC(=O)[C@H](Cc1ccc(O)cc1)NC(=O)[C@@H](N)CC(=O)O
Ki [1]: 3330 nM
Ki (Mu-type opioid receptor [2]): 5200 nM

CCCC[C@H](NC(C)=O)C(=O)N[C@H]1CC(=O)NCCCC[C@@H](C(N)=O)NC(=O)[C@@H]([C@H](C)c2c[nH]c3ccccc23)NC(=O)[C@H](CCCN=C(N)N)NC(=O)[C@@H](Cc2ccccc2)NC(=O)[C@H](Cc2c[nH]cn2)NC1=O
EC50 (Anolis carolinensis [3]): 1 nM
EC50 [4]: 0.33 nM

CCCC[C@H](NC(C)=O)C(=O)N[C@H]1CC(=O)NCCCC[C@@H](C(N)=O)NC(=O)[C@H]([C@@H](C)c2c[nH]c3ccccc23)NC(=O)[C@H](CCCN=C(N)N)NC(=O)[C@@H](Cc2ccccc2)NC(=O)[C@H](Cc2c[nH]cn2)NC1=O
EC50 (Anolis carolinensis [3]): 1 nM
EC50 [5]: 0.44 nM

Cc1cc(O)cc(C)c1[C@@H](C)[C@H](N)C(=O)N[C@H]1C(=O)NCC(=O)N[C@@H](Cc2ccccc2)C(=O)N[C@@H](C(=O)O)C(C)(C)SSC1(C)C
IC50 (Mu-type opioid receptor [6]): 4300 nM

CCCC[C@H](NC(C)=O)C(=O)N[C@H]1CCC(=O)NCCCC[C@@H](C(=O)NCC(=O)N2CCC[C@H]2C(=O)N[C@H](C(N)=O)C(C)C)NC(=O)[C@H](Cc2c[nH]c3ccccc23)NC(=O)[C@H](CCCN=C(N)N)NC(=O)[C@@H](Cc2ccccc2)NC(=O)[C@H](Cc2c[nH]cn2)NC1=O
EC50 (Anolis carolinensis [3]): 0.17 nM
EC50 [4]: 0.5 nM

CC[C@H](C)[C@@H]1NC(=O)[C@H]([C@@H](C)c2c(C)cc(OC)cc2C)NC(=O)[C@H](N)C(C)(C)SSC[C@@H]2NC(=O)[C@H](CC(N)=O)NC(=O)[C@H](CCC(=O)NCCCC[C@@H](C(=O)NCC(N)=O)NC(=O)[C@@H]3CCCN3C2=O)NC1=O
IC50 (Oxytocin receptor): 8 nM

Cc1cc(O)cc(C)c1[C@H](C)[C@@H](N)C(=O)N[C@H](C(=O)NCC(=O)N[C@@H](Cc1ccccc1)C(=O)N[C@H](C(=O)O)C(C)(C)S)C(C)(C)S (H-[X1][Pen]GF[Pen]-OH)
Activity [7]: 75%
Activity (Mu-type opioid receptor [8]): 0%

CCCC[C@H](NC(C)=O)C(=O)N[C@H]1CC(=O)NCC[C@@H](C(N)=O)NC(=O)[C@H](Cc2c[nH]c3ccccc23)NC(=O)[C@H](CCCN=C(N)N)NC(=O)[C@@H](Cc2ccccc2)NC(=O)[C@H](Cc2c[nH]cn2)NC1=O
EC50 (Anolis carolinensis [9]): 0.2 nM
EC50 [5]: 0.5 nM

CCCC[C@H](NC(C)=O)C(=O)N[C@H]1CC(=O)NCCCC[C@@H](C(N)=O)NC(=O)[C@@H]([C@@H](C)c2c[nH]c3ccccc23)NC(=O)[C@H](CCCN=C(N)N)NC(=O)[C@@H](Cc2ccccc2)NC(=O)[C@H](Cc2c[nH]cn2)NC1=O
EC50 (Anolis carolinensis [3]): 1.43 nM
EC50 [4]: 0.06 nM

CCCC[C@@H](C(=O)N[C@@H](CC(=O)O)C(=O)N[C@@H](Cc1ccccc1)C(N)=O)N(C)C(=O)[C@@H](Cc1c[nH]c2ccccc12)NC(=O)CNC(=O)[C@@H](C)NC(=O)[C@@H](N)Cc1ccc(O)cc1 (H-Y[dA]G[dW][NMeNle]DF-NH2)
Ki [1]: 32 nM
Ki [10]: 1.3 nM
Ki [11]: 1.9 nM
Ki (Mu-type opioid receptor [2]): 20 nM

CC[C@H](C)[C@@H]1NC(=O)[C@H](Cc2ccc(O)cc2)NC(=O)[C@H](N)C(C)(C)SSC[C@@H]2NC(=O)[C@H](CC(N)=O)NC(=O)[C@H](CCC(=O)NCCCC[C@@H](C(=O)NCC(N)=O)NC(=O)[C@@H]3CCCN3C2=O)NC1=O
IC50 (Oxytocin receptor): 130 nM

CCCC[C@H](NC(C)=O)C(=O)N[C@H]1CCC(=O)NCCCC[C@@H](C(N)=O)NC(=O)[C@H](Cc2c[nH]c3ccccc23)NC(=O)[C@H](CCCN=C(N)N)NC(=O)[C@@H](Cc2ccccc2)NC(=O)[C@H](Cc2c[nH]cn2)NC1=O
EC50 (Anolis carolinensis [3]): 0.11 nM
EC50 [4]: 1 nM

CC[C@H](C)[C@@H]1NC(=O)[C@H]([C@H](C)c2c(C)cc(OC)cc2C)NC(=O)[C@H](N)C(C)(C)SSC[C@@H]2NC(=O)[C@@H](CC(N)=O)NC(=O)[C@@H](CCC(=O)NCCCC[C@H](C(=O)NCC(N)=O)NC(=O)[C@H]3CCCN3C2=O)NC1=O
IC50 (Oxytocin receptor): 19000 nM

CCCC[C@H](NC(C)=O)C(=O)N[C@H]1CC(=O)NCCCC[C@@H](C(N)=O)NC(=O)[C@H]([C@H](C)c2c[nH]c3ccccc23)NC(=O)[C@H](CCCN=C(N)N)NC(=O)[C@@H](Cc2ccccc2)NC(=O)[C@H](Cc2c[nH]cn2)NC1=O
EC50 (Anolis carolinensis [9]): 6.7 nM
EC50 [5]: 29 nM

CCCC[C@@H](C(=O)N[C@@H](CC(=O)O)C(=O)N[C@@H](Cc1ccccc1)C(N)=O)N(C)C(=O)[C@H](Cc1c[nH]c2ccccc12)NC(=O)[C@H](CCC(=O)O)NC(=O)[C@@H](Cc1ccccc1)NC(=O)[C@@H](N)Cc1ccc(O)cc1
Ki [1]: 10000 nM
Ki [10]: 2.1 nM
Ki [11]: 6.8 nM
Ki (Mu-type opioid receptor [2]): 136 nM

CCCC[C@H](NC(C)=O)C(=O)N[C@H]1CC(=O)NC[C@@H](C(N)=O)NC(=O)[C@H](Cc2c[nH]c3ccccc23)NC(=O)[C@H](CCCN=C(N)N)NC(=O)[C@@H](Cc2ccccc2)NC(=O)[C@H](Cc2c[nH]cn2)NC1=O
EC50 (Anolis carolinensis [9]): 0.2 nM
EC50 [5]: 50 nM

Cc1cc(O)cc(C)c1[C@H](C)[C@H](N)C(=O)N[C@H]1C(=O)NCC(=O)N[C@@H](Cc2ccccc2)C(=O)N[C@@H](C(=O)O)C(C)(C)SSC1(C)C
IC50 [12]: 210 nM
IC50 (Mu-type opioid receptor [6]): 720 nM

CCCC[C@@H](NC(=O)[C@@H](N)Cc1ccc(O)cc1)C(=O)NCC(=O)N[C@@H](Cc1c[nH]c2ccccc12)C(=O)N(C)[C@@H](CCCC)C(=O)N[C@@H](CC(=O)O)C(=O)N[C@@H](Cc1ccccc1)C(N)=O (H-Y[dNle]GW[NMeNle]DF-NH2)
Ki [1]: 3900 nM
Ki [10]: 0.6 nM
Ki [11]: 1.6 nM
Ki (Mu-type opioid receptor [2]): 25 nM

CCCC[C@H](NC(C)=O)C(=O)N[C@H]1CC(=O)NCCC[C@@H](C(N)=O)NC(=O)[C@H](Cc2c[nH]c3ccccc23)NC(=O)[C@H](CCCN=C(N)N)NC(=O)[C@@H](Cc2ccccc2)NC(=O)[C@H](Cc2c[nH]cn2)NC1=O
EC50 (Anolis carolinensis [9]): 0.05 nM
EC50 [5]: 0.5 nM

CCCC[C@@H](C(=O)N[C@@H](CC(=O)O)C(=O)N[C@@H](Cc1ccccc1)C(N)=O)N(C)C(=O)[C@@H](Cc1c[nH]c2ccccc12)NC(=O)CNC(=O)[C@@H](Cc1ccccc1)NC(=O)[C@@H](N)Cc1ccc(O)cc1 (H-Y[dF]G[dW][NMeNle]DF-NH2)
Ki [10]: 1.6 nM
Ki [11]: 0.5 nM
Ki (Mu-type opioid receptor [2]): 5.7 nM

CCCC[C@@H](C(=O)N[C@@H](CC(=O)O)C(=O)N[C@@H](Cc1ccccc1)C(N)=O)N(C)C(=O)[C@H](Cc1c[nH]c2ccccc12)NC(=O)CNC(=O)CNC(=O)[C@@H](N)Cc1ccc(O)cc1 (H-YGGW[NMeNle]DF-NH2)
Ki [1]: 870 nM
Ki [10]: 1.3 nM
Ki [11]: 2000 nM
Ki (Mu-type opioid receptor [2]): 610 nM

CCCC[C@H](NC(C)=O)C(=O)N[C@H]1CC(=O)NCCCC[C@@H](C(=O)NCC(=O)N2CCC[C@H]2C(=O)N[C@H](C(N)=O)C(C)C)NC(=O)[C@H](Cc2c[nH]c3ccccc23)NC(=O)[C@H](CCCN=C(N)N)NC(=O)[C@@H](Cc2ccccc2)NC(=O)[C@H](Cc2c[nH]cn2)NC1=O
EC50 (Anolis carolinensis [3]): 0.01 nM
EC50 [4]: 0.5 nM
